# According to ChEMBL document CHEMBL2384949, “Nitroimidazolyl hydrazones are better amoebicides than their cyclized 1,3,4-oxadiazoline analogues: In vitro studies and Lipophilic efficiency analysis” (Eur J Med Chem, 2013):
# System: Entamoeba histolytica
# Assay: Antiamoebic activity against Entamoeba histolytica HM-1:IMSS trophozoites after 72 hrs by microdilution method
# Format: functional, organism-based
# Conditions: read-out: IC50
row,SMILES,IC50
1,CC(=O)N1N=C(Cn2c([N+](=O)[O-])cnc2C)OC1c1ccccc1Cl (stereo not drawn),6.84 µM
2,Cc1ccc(/C=N/NC(=O)Cn2c([N+](=O)[O-])cnc2C)cc1,0.96 µM
3,Cc1ncc([N+](=O)[O-])n1CC(=O)N/N=C/c1ccc(Cl)cc1,3.64 µM
4,COc1cc(C2OC(Cn3c([N+](=O)[O-])cnc3C)=NN2C(C)=O)cc(OC)c1OC (stereo not drawn),5.82 µM
5,CCOc1ccc(C2OC(Cn3c([N+](=O)[O-])cnc3C)=NN2C(C)=O)cc1 (stereo not drawn),2.32 µM
6,CC(=O)N1N=C(Cn2c([N+](=O)[O-])cnc2C)OC1c1ccccc1 (stereo not drawn),9.82 µM
7,CCc1ccc(C2OC(Cn3c([N+](=O)[O-])cnc3C)=NN2C(C)=O)cc1 (stereo not drawn),2.62 µM
8,CC(=O)N1N=C(Cn2c([N+](=O)[O-])cnc2C)OC1c1cccc(Cl)c1 (stereo not drawn),6.32 µM
9,CCOc1ccc(/C=N/NC(=O)Cn2c([N+](=O)[O-])cnc2C)cc1,1.65 µM
10,COc1cc(/C=N/NC(=O)Cn2c([N+](=O)[O-])cnc2C)cc(OC)c1OC,4.12 µM

# The next lines start with the values.
row,IC50,SMILES
1,2.58 µM,Cc1ccc(C)c(/C=N/NC(=O)Cn2c([N+](=O)[O-])cnc2C)c1
2,0.81 µM,COc1ccc(/C=N/NC(=O)Cn2c([N+](=O)[O-])cnc2C)cc1
3,2.48 µM,CC(=O)N1N=C(Cn2c([N+](=O)[O-])cnc2C)OC1c1ccc(C)cc1 (stereo not drawn)
4,3.86 µM,Cc1ncc([N+](=O)[O-])n1CC(=O)N/N=C/c1ccccc1Cl
5,4.62 µM,COc1ccc(OC)c(C2OC(Cn3c([N+](=O)[O-])cnc3C)=NN2C(C)=O)c1 (stereo not drawn)
6,2.18 µM,COc1ccc(C2OC(Cn3c([N+](=O)[O-])cnc3C)=NN2C(C)=O)cc1 (stereo not drawn)
7,2.64 µM,COc1ccc(OC)c(/C=N/NC(=O)Cn2c([N+](=O)[O-])cnc2C)c1
8,3.68 µM,Cc1ncc([N+](=O)[O-])n1CC(=O)N/N=C/c1ccc(C(C)C)cc1
9,4.88 µM,CC(=O)N1N=C(Cn2c([N+](=O)[O-])cnc2C)OC1c1ccc(C(C)C)cc1 (stereo not drawn)
10,1.32 µM,CCc1ccc(/C=N/NC(=O)Cn2c([N+](=O)[O-])cnc2C)cc1
11,4.28 µM,Cc1ncc([N+](=O)[O-])n1CC(=O)N/N=C/c1ccccc1
12,5.4 µM,CC(=O)N1N=C(Cn2c([N+](=O)[O-])cnc2C)OC1c1ccc(Cl)cc1 (stereo not drawn)
13,3.82 µM,Cc1ncc([N+](=O)[O-])n1CC(=O)N/N=C/c1cccc(Cl)c1
14,4.38 µM,CC(=O)N1N=C(Cn2c([N+](=O)[O-])cnc2C)OC1c1cc(C)ccc1C (stereo not drawn)

# Same assay, conditions: read-out: pIC50 (converted)
row,SMILES,IC50
1,CC(=O)N1N=C(Cn2c([N+](=O)[O-])cnc2C)OC1c1ccccc1Cl (stereo not drawn),6.85 µM
2,Cc1ccc(/C=N/NC(=O)Cn2c([N+](=O)[O-])cnc2C)cc1,0.962 µM
3,Cc1ncc([N+](=O)[O-])n1CC(=O)N/N=C/c1ccc(Cl)cc1,3.65 µM
4,COc1cc(C2OC(Cn3c([N+](=O)[O-])cnc3C)=NN2C(C)=O)cc(OC)c1OC (stereo not drawn),5.82 µM
5,CCOc1ccc(C2OC(Cn3c([N+](=O)[O-])cnc3C)=NN2C(C)=O)cc1 (stereo not drawn),2.32 µM
6,CC(=O)N1N=C(Cn2c([N+](=O)[O-])cnc2C)OC1c1ccccc1 (stereo not drawn),9.84 µM
7,CCc1ccc(C2OC(Cn3c([N+](=O)[O-])cnc3C)=NN2C(C)=O)cc1 (stereo not drawn),2.62 µM
8,CC(=O)N1N=C(Cn2c([N+](=O)[O-])cnc2C)OC1c1cccc(Cl)c1 (stereo not drawn),6.32 µM
9,CCOc1ccc(/C=N/NC(=O)Cn2c([N+](=O)[O-])cnc2C)cc1,1.65 µM
10,COc1cc(/C=N/NC(=O)Cn2c([N+](=O)[O-])cnc2C)cc(OC)c1OC,4.12 µM

# Now from value to compound:
row,IC50,SMILES
1,2.58 µM,Cc1ccc(C)c(/C=N/NC(=O)Cn2c([N+](=O)[O-])cnc2C)c1
2,0.811 µM,COc1ccc(/C=N/NC(=O)Cn2c([N+](=O)[O-])cnc2C)cc1
3,2.48 µM,CC(=O)N1N=C(Cn2c([N+](=O)[O-])cnc2C)OC1c1ccc(C)cc1 (stereo not drawn)
4,3.86 µM,Cc1ncc([N+](=O)[O-])n1CC(=O)N/N=C/c1ccccc1Cl
5,4.62 µM,COc1ccc(OC)c(C2OC(Cn3c([N+](=O)[O-])cnc3C)=NN2C(C)=O)c1 (stereo not drawn)
6,2.18 µM,COc1ccc(C2OC(Cn3c([N+](=O)[O-])cnc3C)=NN2C(C)=O)cc1 (stereo not drawn)
7,2.64 µM,COc1ccc(OC)c(/C=N/NC(=O)Cn2c([N+](=O)[O-])cnc2C)c1
8,3.68 µM,Cc1ncc([N+](=O)[O-])n1CC(=O)N/N=C/c1ccc(C(C)C)cc1
9,4.89 µM,CC(=O)N1N=C(Cn2c([N+](=O)[O-])cnc2C)OC1c1ccc(C(C)C)cc1 (stereo not drawn)
10,1.32 µM,CCc1ccc(/C=N/NC(=O)Cn2c([N+](=O)[O-])cnc2C)cc1
11,4.29 µM,Cc1ncc([N+](=O)[O-])n1CC(=O)N/N=C/c1ccccc1
12,5.41 µM,CC(=O)N1N=C(Cn2c([N+](=O)[O-])cnc2C)OC1c1ccc(Cl)cc1 (stereo not drawn)
13,3.83 µM,Cc1ncc([N+](=O)[O-])n1CC(=O)N/N=C/c1cccc(Cl)c1
14,4.39 µM,CC(=O)N1N=C(Cn2c([N+](=O)[O-])cnc2C)OC1c1cc(C)ccc1C (stereo not drawn)

# System: not listed separately
# Assay: Cytotoxicity against human HepG2 cells assessed as cell viability at 3.13 uM after 48 hrs by MTT assay
# Format: cell-based
# Conditions: read-out: Activity
row,SMILES,"viability at 48 h, 3.13 µM"
1,Cc1ccc(/C=N/NC(=O)Cn2c([N+](=O)[O-])cnc2C)cc1,98%
2,COc1ccc(/C=N/NC(=O)Cn2c([N+](=O)[O-])cnc2C)cc1,98%
3,CCc1ccc(/C=N/NC(=O)Cn2c([N+](=O)[O-])cnc2C)cc1,98%
4,Cc1ncc([N+](=O)[O-])n1CCO [METRONIDAZOLE],98%
5,CCOc1ccc(/C=N/NC(=O)Cn2c([N+](=O)[O-])cnc2C)cc1,98%

# System: HepG2
# Assay: Cytotoxicity against human HepG2 cells after 48 hrs by MTT assay
# Format: cell-based
# Conditions: Homo sapiens, HepG2, 48 h
row,SMILES,IC50
1,Cc1ccc(/C=N/NC(=O)Cn2c([N+](=O)[O-])cnc2C)cc1,> 100 µM
2,COc1ccc(/C=N/NC(=O)Cn2c([N+](=O)[O-])cnc2C)cc1,> 100 µM
3,CCc1ccc(/C=N/NC(=O)Cn2c([N+](=O)[O-])cnc2C)cc1,> 100 µM
4,Cc1ncc([N+](=O)[O-])n1CCO [METRONIDAZOLE],> 100 µM
5,CCOc1ccc(/C=N/NC(=O)Cn2c([N+](=O)[O-])cnc2C)cc1,> 100 µM

# Same assay, conditions: human, hepg2, 48 h
row,SMILES,Activity
1,Cc1ccc(/C=N/NC(=O)Cn2c([N+](=O)[O-])cnc2C)cc1,Dose-dependent effect
2,COc1ccc(/C=N/NC(=O)Cn2c([N+](=O)[O-])cnc2C)cc1,Dose-dependent effect
3,CCc1ccc(/C=N/NC(=O)Cn2c([N+](=O)[O-])cnc2C)cc1,Dose-dependent effect
4,Cc1ncc([N+](=O)[O-])n1CCO [METRONIDAZOLE],Dose-dependent effect
5,CCOc1ccc(/C=N/NC(=O)Cn2c([N+](=O)[O-])cnc2C)cc1,Dose-dependent effect

# System: not listed separately
# Assay: Safety index, ratio of IC50 for human HepG2 cells to IC50 for Entamoeba histolytica HM-1:IMSS trophozoites
# Conditions: HepG2 cells
row,SMILES,selectivity ratio
1,Cc1ccc(/C=N/NC(=O)Cn2c([N+](=O)[O-])cnc2C)cc1,> 104
2,COc1ccc(/C=N/NC(=O)Cn2c([N+](=O)[O-])cnc2C)cc1,> 123
3,CCc1ccc(/C=N/NC(=O)Cn2c([N+](=O)[O-])cnc2C)cc1,> 75.8
4,CCOc1ccc(/C=N/NC(=O)Cn2c([N+](=O)[O-])cnc2C)cc1,> 60.6

# Same assay, conditions: hepg2
row,SMILES,selectivity ratio
1,Cc1ncc([N+](=O)[O-])n1CCO [METRONIDAZOLE],> 55.5

# System: not listed separately
# Assay: Cytotoxicity against human HepG2 cells assessed as cell viability at 100 uM after 48 hrs by MTT assay
# Format: cell-based
# Conditions: read-out: Activity
row,SMILES,"viability at 48 h, 100 µM"
1,Cc1ccc(/C=N/NC(=O)Cn2c([N+](=O)[O-])cnc2C)cc1,≥ 68%
2,COc1ccc(/C=N/NC(=O)Cn2c([N+](=O)[O-])cnc2C)cc1,≥ 68%
3,CCc1ccc(/C=N/NC(=O)Cn2c([N+](=O)[O-])cnc2C)cc1,≥ 68%
4,Cc1ncc([N+](=O)[O-])n1CCO [METRONIDAZOLE],≥ 68%
5,CCOc1ccc(/C=N/NC(=O)Cn2c([N+](=O)[O-])cnc2C)cc1,≥ 68%

# System: not listed separately
# Assay: Cytotoxicity against human HepG2 cells assessed as cell viability up to 25 uM after 48 hrs by MTT assay
# Format: cell-based
# Conditions: read-out: Activity
row,SMILES,viability at 48 h
1,Cc1ccc(/C=N/NC(=O)Cn2c([N+](=O)[O-])cnc2C)cc1,≥ 88%
2,COc1ccc(/C=N/NC(=O)Cn2c([N+](=O)[O-])cnc2C)cc1,≥ 88%
3,CCc1ccc(/C=N/NC(=O)Cn2c([N+](=O)[O-])cnc2C)cc1,≥ 88%
4,Cc1ncc([N+](=O)[O-])n1CCO [METRONIDAZOLE],≥ 88%
5,CCOc1ccc(/C=N/NC(=O)Cn2c([N+](=O)[O-])cnc2C)cc1,≥ 88%

# System: HepG2
# Assay: Cytotoxicity against human HepG2 cells assessed as cell viability at 50 to 100 uM after 48 hrs by MTT assay
# Format: cell-based
# Conditions: hepg2, 48 h
row,SMILES,Activity
1,Cc1ccc(/C=N/NC(=O)Cn2c([N+](=O)[O-])cnc2C)cc1,Non-toxic
2,COc1ccc(/C=N/NC(=O)Cn2c([N+](=O)[O-])cnc2C)cc1,Non-toxic
3,CCc1ccc(/C=N/NC(=O)Cn2c([N+](=O)[O-])cnc2C)cc1,Non-toxic
4,Cc1ncc([N+](=O)[O-])n1CCO [METRONIDAZOLE],Non-toxic
5,CCOc1ccc(/C=N/NC(=O)Cn2c([N+](=O)[O-])cnc2C)cc1,Non-toxic
